# Reference: patent US20240269139A1, “COMPOUNDS FOR TARGETED PROTEIN DEGRADATION OF KINASES” (DANA-FARBER CANCER INSTITUTE, INC., priority 2020, published 2024)
# “And” between values parts separate entries of the source, which are not always exact repeats. Equal values may be shown once. Read-outs that look alike come from different tables or passages of the source.
# Experiments:
# Format in all cases: cell-based
# [1] = molecular target: protein kinases (human kinome) (Homo sapiens, UniProt Q16584)
# [2] = molecular target: protein kinases (human kinome) (Homo sapiens, UniProt P24941)
# [3] = molecular target: protein kinases (human kinome) (Homo sapiens, UniProt Q00537); details: for logFC of CDK17: Accession Q00537; for logFC CDK17 (Q00537): direction of change down
# [4] = molecular target: protein kinases (human kinome) (Homo sapiens, UniProt Q8TDR2)
# [5] = molecular target: protein kinases (human kinome) (Homo sapiens, UniProt P42684); details: for logFC: ABL2 (P42684) protein abundance, degrader vs DMSO, down
# [6] = molecular target: protein kinases (human kinome) (Homo sapiens, UniProt P41240); details: for logFC of CSK: Accession P41240; for logFC CSK: CSK (P41240), down
# [7] = molecular target: T1, protein kinases (human kinome) (Homo sapiens, UniProt O94768); details: for logFC STK17B (O94768): direction down; for logFC: STK17B (O94768)
# T1 sequence (O94768 1-372): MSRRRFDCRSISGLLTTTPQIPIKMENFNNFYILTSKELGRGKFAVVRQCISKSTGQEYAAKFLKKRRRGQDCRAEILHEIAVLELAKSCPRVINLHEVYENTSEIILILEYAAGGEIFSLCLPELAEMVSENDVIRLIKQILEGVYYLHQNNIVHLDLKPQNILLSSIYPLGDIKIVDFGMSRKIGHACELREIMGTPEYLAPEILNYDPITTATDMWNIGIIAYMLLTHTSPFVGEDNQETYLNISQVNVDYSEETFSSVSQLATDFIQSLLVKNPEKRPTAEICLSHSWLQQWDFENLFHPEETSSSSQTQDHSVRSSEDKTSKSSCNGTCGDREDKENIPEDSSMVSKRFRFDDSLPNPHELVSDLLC
# [8] = molecular target: T2, protein kinases (human kinome) (Homo sapiens, UniProt Q8TAS1)
# T2 sequence (Q8TAS1 1-419): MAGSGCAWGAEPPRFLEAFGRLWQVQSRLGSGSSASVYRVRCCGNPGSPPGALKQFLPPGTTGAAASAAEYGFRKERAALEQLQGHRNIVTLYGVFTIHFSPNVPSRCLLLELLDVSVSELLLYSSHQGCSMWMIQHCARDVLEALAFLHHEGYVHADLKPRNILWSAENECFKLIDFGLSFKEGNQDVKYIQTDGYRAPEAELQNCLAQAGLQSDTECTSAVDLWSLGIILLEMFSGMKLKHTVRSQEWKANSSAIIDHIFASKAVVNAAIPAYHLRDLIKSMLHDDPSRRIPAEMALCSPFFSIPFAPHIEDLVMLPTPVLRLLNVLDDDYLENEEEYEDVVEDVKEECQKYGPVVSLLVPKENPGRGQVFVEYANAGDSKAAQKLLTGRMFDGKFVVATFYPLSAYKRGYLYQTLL
# [9] = experiment wp016, direction of change down
# Sequence of protein kinases (human kinome) (Homo sapiens, UniProt Q8TDR2) (Q8TDR2 whole entry): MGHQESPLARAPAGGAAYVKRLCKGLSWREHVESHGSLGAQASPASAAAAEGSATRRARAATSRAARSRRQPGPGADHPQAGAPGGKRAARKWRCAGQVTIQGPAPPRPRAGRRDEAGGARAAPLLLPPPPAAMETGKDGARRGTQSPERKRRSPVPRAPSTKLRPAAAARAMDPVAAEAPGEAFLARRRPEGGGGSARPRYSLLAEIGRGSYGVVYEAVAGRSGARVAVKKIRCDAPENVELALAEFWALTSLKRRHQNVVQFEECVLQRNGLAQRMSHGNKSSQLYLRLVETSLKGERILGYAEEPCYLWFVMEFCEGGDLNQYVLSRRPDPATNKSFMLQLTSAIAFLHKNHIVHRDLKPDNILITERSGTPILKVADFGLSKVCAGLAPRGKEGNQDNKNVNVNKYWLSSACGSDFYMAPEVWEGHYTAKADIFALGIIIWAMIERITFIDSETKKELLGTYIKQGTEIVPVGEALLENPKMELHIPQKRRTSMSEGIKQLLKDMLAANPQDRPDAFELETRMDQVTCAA
# Sequence of protein kinases (human kinome) (Homo sapiens, UniProt P41240) (P41240 whole entry): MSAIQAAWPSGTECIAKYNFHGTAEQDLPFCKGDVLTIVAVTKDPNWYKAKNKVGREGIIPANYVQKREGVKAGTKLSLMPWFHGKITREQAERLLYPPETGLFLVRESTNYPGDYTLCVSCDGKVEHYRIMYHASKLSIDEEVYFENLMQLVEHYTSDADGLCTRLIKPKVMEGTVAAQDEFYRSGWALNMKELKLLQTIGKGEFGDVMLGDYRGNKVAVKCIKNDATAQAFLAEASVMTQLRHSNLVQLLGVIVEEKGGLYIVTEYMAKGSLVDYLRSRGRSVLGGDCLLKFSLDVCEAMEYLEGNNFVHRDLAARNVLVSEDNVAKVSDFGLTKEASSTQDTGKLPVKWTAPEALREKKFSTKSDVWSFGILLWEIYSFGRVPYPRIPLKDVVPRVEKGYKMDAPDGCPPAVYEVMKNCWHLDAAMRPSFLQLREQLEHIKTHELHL
# Sequence of protein kinases (human kinome) (Homo sapiens, UniProt Q00537) (Q00537 whole entry): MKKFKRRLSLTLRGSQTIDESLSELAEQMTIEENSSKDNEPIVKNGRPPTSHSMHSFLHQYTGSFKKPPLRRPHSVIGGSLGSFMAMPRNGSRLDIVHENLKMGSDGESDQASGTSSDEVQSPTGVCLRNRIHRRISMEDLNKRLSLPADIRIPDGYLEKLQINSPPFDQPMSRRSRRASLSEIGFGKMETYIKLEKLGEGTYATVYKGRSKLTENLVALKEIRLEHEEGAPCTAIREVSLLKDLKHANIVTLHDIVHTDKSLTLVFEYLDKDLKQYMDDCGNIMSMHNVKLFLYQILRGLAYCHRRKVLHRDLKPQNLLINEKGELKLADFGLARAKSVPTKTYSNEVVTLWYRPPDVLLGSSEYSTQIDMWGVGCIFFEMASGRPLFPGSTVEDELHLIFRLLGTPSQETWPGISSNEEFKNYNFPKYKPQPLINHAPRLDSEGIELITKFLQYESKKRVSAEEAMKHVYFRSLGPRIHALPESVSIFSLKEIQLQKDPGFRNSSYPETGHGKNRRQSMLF
# Sequence of protein kinases (human kinome) (Homo sapiens, UniProt Q16584) (Q16584 whole entry): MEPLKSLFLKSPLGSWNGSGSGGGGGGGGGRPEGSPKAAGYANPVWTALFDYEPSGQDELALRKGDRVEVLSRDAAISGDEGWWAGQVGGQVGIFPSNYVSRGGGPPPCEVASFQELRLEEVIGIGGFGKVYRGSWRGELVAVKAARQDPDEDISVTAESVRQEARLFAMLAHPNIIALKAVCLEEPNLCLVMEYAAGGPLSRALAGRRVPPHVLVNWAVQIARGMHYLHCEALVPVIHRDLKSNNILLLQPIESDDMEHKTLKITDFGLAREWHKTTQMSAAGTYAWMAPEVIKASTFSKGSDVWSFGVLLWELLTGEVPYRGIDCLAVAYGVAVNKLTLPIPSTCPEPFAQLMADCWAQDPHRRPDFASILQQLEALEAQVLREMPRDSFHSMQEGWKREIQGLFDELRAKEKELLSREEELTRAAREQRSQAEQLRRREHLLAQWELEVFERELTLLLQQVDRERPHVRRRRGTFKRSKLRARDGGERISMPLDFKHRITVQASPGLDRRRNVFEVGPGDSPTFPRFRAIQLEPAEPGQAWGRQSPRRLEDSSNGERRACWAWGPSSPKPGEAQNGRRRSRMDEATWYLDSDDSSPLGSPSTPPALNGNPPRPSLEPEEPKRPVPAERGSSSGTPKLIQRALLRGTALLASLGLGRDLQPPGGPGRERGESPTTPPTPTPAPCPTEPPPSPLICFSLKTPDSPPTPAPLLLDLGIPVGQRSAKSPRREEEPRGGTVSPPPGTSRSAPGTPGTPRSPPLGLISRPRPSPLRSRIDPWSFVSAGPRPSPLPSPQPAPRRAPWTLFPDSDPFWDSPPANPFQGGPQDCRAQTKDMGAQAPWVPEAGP
# Sequence of protein kinases (human kinome) (Homo sapiens, UniProt P42684) (P42684 whole entry): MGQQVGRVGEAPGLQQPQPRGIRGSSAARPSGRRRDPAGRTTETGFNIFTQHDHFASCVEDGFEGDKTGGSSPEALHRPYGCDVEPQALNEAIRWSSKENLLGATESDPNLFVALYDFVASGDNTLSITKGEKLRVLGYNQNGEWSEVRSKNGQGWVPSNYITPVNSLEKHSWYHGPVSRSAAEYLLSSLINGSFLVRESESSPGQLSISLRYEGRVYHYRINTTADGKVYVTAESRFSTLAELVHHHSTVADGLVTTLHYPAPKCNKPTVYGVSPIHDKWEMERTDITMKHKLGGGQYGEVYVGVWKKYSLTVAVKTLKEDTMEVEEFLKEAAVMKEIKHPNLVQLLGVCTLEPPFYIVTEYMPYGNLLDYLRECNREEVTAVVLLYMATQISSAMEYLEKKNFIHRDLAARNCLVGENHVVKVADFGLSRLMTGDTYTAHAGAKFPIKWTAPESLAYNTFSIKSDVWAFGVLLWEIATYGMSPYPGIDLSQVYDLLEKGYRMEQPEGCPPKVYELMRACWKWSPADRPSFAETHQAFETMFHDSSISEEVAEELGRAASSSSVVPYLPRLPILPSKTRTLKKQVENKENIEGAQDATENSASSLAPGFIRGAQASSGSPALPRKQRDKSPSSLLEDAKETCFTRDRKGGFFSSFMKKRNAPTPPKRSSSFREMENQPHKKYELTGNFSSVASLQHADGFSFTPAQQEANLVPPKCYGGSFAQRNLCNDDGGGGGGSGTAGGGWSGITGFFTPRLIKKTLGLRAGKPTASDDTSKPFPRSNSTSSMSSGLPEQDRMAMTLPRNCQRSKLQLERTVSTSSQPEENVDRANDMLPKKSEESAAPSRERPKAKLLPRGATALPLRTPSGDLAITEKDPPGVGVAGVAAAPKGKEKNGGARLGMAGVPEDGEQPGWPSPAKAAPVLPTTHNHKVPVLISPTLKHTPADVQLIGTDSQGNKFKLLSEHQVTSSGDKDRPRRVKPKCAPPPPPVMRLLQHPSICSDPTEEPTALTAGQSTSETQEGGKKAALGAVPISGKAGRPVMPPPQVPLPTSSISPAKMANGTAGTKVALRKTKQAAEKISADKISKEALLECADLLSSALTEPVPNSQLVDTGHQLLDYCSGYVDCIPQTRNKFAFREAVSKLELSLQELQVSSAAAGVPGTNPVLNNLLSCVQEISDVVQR
smiles,measurement,setting,value
Cc1cc(Nc2ncc(Br)c(Nc3cccc(F)c3C(N)=O)n2)ccc1S(=O)(=O)NCCOCCOCCOCCOCCNc1cccc2c1C(=O)N(C1CCC(=O)NC1=O)C2=O (stereo not drawn) [TMX.02.174],logFC MAP3K11 (Q16584),[1]; experiment wp146,−1.874
same,logFC CDK2 (P24941-1),[2]; experiment wp146,−2.295
same,logFC CDK2 (P24941-1),"[2]; experiment wp146, direction of change down",−2.295
same,logFC of CDK17,[3]; experiment wp146,−1.42
same,logFC CDK17 (Q00537),[3]; experiment wp146,−1.42
same,logFC STK35,"[4]; Accession Q8TDR2, experiment wp146, direction down",−0.5631
same,logFC STK35,"[4]; STK35 (Q8TDR2), experiment wp146",−0.5631
CC(C)S(=O)(=O)c1ccccc1Nc1nc(Nc2ccc(N3CCN(CCOCCOCCNC(=O)CNc4cccc5c4C(=O)N(C4CCC(=O)NC4=O)C5=O)CC3)cc2)ncc1Cl (stereo not drawn) [TL12.186],logFC MAP3K11 (Q16584),[1]; experiment wp131,−1.795
same,logFC MAP3K11 (Q16584),[1]; experiment wp137,−1.493
same,logFC,[5],−0.803
same,logFC ABL2 (P42684),[5]; experiment wp137,−0.803
same,logFC CDK2 (P24941-1),[2]; experiment wp016,−0.5971
same,logFC CDK2 (P24941-1),[2]; [9],−0.5971
same,logFC CDK2 (P24941-1),[2]; experiment wp131,−0.98
same,logFC CDK2 (P24941-1),"[2]; experiment wp131, direction of change down",−0.98
same,logFC CDK2 (P24941-1),[2]; experiment wp137,−0.9162
same,logFC CDK2 (P24941-1),"[2]; experiment wp137, direction of change down",−0.9162
same,logFC of CDK17,[3]; experiment wp016,−0.84
same,logFC of CDK17,[3]; experiment wp131,−0.6165
same,logFC CDK17 (Q00537),[3]; experiment wp016,−0.84
same,logFC CDK17 (Q00537),[3]; experiment wp131,−0.6165
same,logFC STK35,"[4]; Accession Q8TDR2, experiment wp131, direction down",−0.4135
same,logFC STK35,"[4]; Accession Q8TDR2, experiment wp137, direction down",−0.4079
same,logFC STK35,"[4]; STK35 (Q8TDR2), experiment wp131",−0.4135
same,logFC STK35,"[4]; STK35 (Q8TDR2), experiment wp137",−0.4079
CC(C)S(=O)(=O)c1ccccc1Nc1nc(Nc2ccc(N3CCN(CCOCCNC(=O)CNc4cccc5c4C(=O)N(C4CCC(=O)NC4=O)C5=O)CC3)cc2)ncc1Cl (stereo not drawn) [SK.3.91],logFC MAP3K11 (Q16584),[1]; experiment wp103,−0.7838
same,logFC MAP3K11 (Q16584),[1]; experiment wp107,−2.182
same,logFC MAP3K11 (Q16584),[1]; experiment wp114,−0.4774
same,logFC MAP3K11 (Q16584),"[1]; experiment wp133, 1 hr",−0.3986
same,logFC MAP3K11 (Q16584),"[1]; experiment wp133, 2 hr",−0.8441
same,logFC MAP3K11 (Q16584),"[1]; experiment wp133, 4 hr",−1.487
same,logFC of CSK,[6]; experiment wp016,−0.3254
same,logFC of CSK,"[6]; experiment wp016, 1 uM",−0.6596
same,logFC of CSK,[6]; experiment wp103,−0.4343
same,logFC of CSK,[6]; experiment wp105,−0.7044
same,logFC of CSK,[6]; experiment wp107,−0.5646
same,logFC of CSK,"[6]; experiment wp133, 4 hr",−0.5492
same,logFC of CSK,"[6]; experiment wp160, 4 hr",−0.4976
same,logFC of CSK,[6]; experiment wp172,−0.4225
same,logFC CSK,"[6]; experiment wp016, 1 uM",−0.6596
same,logFC CSK,[6]; experiment wp016,−0.3254
same,logFC CSK,[6]; experiment wp103,−0.4343
same,logFC CSK,[6]; experiment wp105,−0.7044
same,logFC CSK,[6]; experiment wp107,−0.5646
same,logFC CSK,"[6]; experiment wp133, 4 hr",−0.5492
same,logFC CSK,"[6]; experiment wp160, 4 hr",−0.4976
same,logFC CSK,[6]; experiment wp172,−0.4225
same,logFC,[5]; 1 uM,−1.077
same,logFC,[5]; 2 hr,−0.3453
same,logFC,[5]; 4 hr,−0.8519 and −0.7658
same,logFC ABL2 (P42684),[5]; Experiment wp107,−1.032
same,logFC ABL2 (P42684),[5]; experiment wp016,−0.4963
same,logFC ABL2 (P42684),"[5]; experiment wp016, 1 uM",−1.077
same,logFC ABL2 (P42684),"[5]; experiment wp133, 2 hr",−0.3453
same,logFC ABL2 (P42684),"[5]; experiment wp133, 4 hr",−0.8519
same,logFC ABL2 (P42684),"[5]; experiment wp160, 4 hr",−0.7658
same,logFC CDK2 (P24941-1),[2]; Experiment wp103,−0.4588
same,logFC CDK2 (P24941-1),"[2]; Experiment wp105, direction of change down",−0.4593
same,logFC CDK2 (P24941-1),[2]; Experiment wp107,−0.7583
same,logFC CDK2 (P24941-1),"[2]; Experiment wp160, 2 hr",−0.383
same,logFC CDK2 (P24941-1),[2]; Experiment wp172,−0.8996
same,logFC CDK2 (P24941-1),[2]; experiment wp016,−0.5115
same,logFC CDK2 (P24941-1),"[2]; experiment wp016, 1 uM",−1.047
same,logFC CDK2 (P24941-1),"[2]; experiment wp016, 1 uM, direction of change down",−1.047
same,logFC CDK2 (P24941-1),[2]; [9],−0.5115
same,logFC CDK2 (P24941-1),"[2]; experiment wp103, direction of change down",−0.4588
same,logFC CDK2 (P24941-1),[2]; experiment wp105,−0.4593
same,logFC CDK2 (P24941-1),"[2]; experiment wp107, direction of change down",−0.7583
same,logFC CDK2 (P24941-1),"[2]; experiment wp133, 2 hr",−0.4306
same,logFC CDK2 (P24941-1),"[2]; experiment wp133, 2 hr, direction of change down",−0.4306
same,logFC CDK2 (P24941-1),"[2]; experiment wp133, 4 hr",−0.6908
same,logFC CDK2 (P24941-1),"[2]; experiment wp133, 4 hr, direction of change down",−0.6908
same,logFC CDK2 (P24941-1),"[2]; experiment wp160, 2 hr, direction of change down",−0.383
same,logFC CDK2 (P24941-1),"[2]; experiment wp160, 4 hr",−0.647
same,logFC CDK2 (P24941-1),"[2]; experiment wp160, 4 hr, direction of change down",−0.647
same,logFC CDK2 (P24941-1),"[2]; experiment wp172, direction of change down",−0.8996
same,logFC STK17B (O94768),"[7]; Experiment wp016, 1 uM",−0.327
same,logFC STK17B (O94768),"[7]; Experiment wp133, 4 hr",−0.545
same,logFC,"[7]; experiment wp016, 1 uM",−0.327
same,logFC,"[7]; experiment wp133, 4 hr",−0.545
same,logFC of CDK17,[3]; experiment wp016,−0.7341
same,logFC of CDK17,"[3]; experiment wp016, 1 uM",−0.7503
same,logFC of CDK17,[3]; experiment wp103,−0.6015
same,logFC of CDK17,[3]; experiment wp105,−0.732
same,logFC of CDK17,[3]; experiment wp107,−0.6145
same,logFC of CDK17,"[3]; experiment wp133, 2 hr",−0.372
same,logFC of CDK17,"[3]; experiment wp133, 4 hr",−0.611
same,logFC of CDK17,"[3]; experiment wp160, 4 hr",−0.3952
same,logFC of CDK17,[3]; experiment wp172,−0.7492
same,logFC CDK17 (Q00537),[3]; Experiment wp105,−0.732
same,logFC CDK17 (Q00537),"[3]; experiment wp016, 1 uM",−0.7503
same,logFC CDK17 (Q00537),[3]; experiment wp016,−0.7341
same,logFC CDK17 (Q00537),[3]; experiment wp103,−0.6015
same,logFC CDK17 (Q00537),[3]; experiment wp107,−0.6145
same,logFC CDK17 (Q00537),"[3]; experiment wp133, 2 hr",−0.372
same,logFC CDK17 (Q00537),"[3]; experiment wp133, 4 hr",−0.611
same,logFC CDK17 (Q00537),"[3]; experiment wp160, 4 hr",−0.3952
same,logFC CDK17 (Q00537),[3]; experiment wp172,−0.7492
same,logFC UHMK1,"[8]; Accession Q8TAS1, experiment wp160, 2 hr, direction down",−0.4144
same,logFC UHMK1,"[8]; Accession Q8TAS1, experiment wp160, 4 hr, direction down",−0.3959
same,logFC UHMK1,"[8]; UHMK1 (Q8TAS1), experiment wp160, 2 hr",−0.4144
same,logFC UHMK1,"[8]; UHMK1 (Q8TAS1), experiment wp160, 4 hr",−0.3959
